Source: ChEMBL document CHEMBL1150812, “New taxane analogues from the needles of Taxus canadensis” (J Nat Prod, 2001)

Test system: MCF7
Experiment: Antiproliferative activity against human MCF7 cells after 72 hrs by MTT assay
Type: functional, cell-based
Details: MCF7, 72 h

Row | Structure (SMILES) | IC50 [nM]
1 | C/C=C(\C)C(=O)N[C@@H](c1ccccc1)[C@@H](O)C(=O)O[C@H]1C[C@@]2(O)[C@@H](OC(=O)c3ccccc3)[C@@H]3[C@]4(OC(C)=O)CO[C@@H]4C[C@@H](O)[C@@]3(C)C(=O)C(=O)C(=C1C)C2(C)C | 80
2 | CC(=O)O[C@H]1C[C@H]2OC[C@@]2(OC(C)=O)[C@H]2[C@H](OC(=O)c3ccccc3)[C@]3(O)C[C@H](OC(=O)[C@H](O)[C@@H](NC(=O)c4ccccc4)c4ccccc4)C(C)=C([C@@H](O)C(=O)[C@]12C)C3(C)C | 10
3 | CC(=O)O[C@@]12CO[C@@H]1C[C@H](O)[C@@]1(C)C(=O)C(=O)C3=C(C)[C@@H](OC(=O)[C@H](O)[C@@H](NC(=O)c4ccccc4)c4ccccc4)C[C@@](O)([C@@H](OC(=O)c4ccccc4)[C@H]21)C3(C)C | 64
4 | C/C=C(\C)C(=O)N[C@@H](c1ccccc1)[C@@H](O)C(=O)O[C@H]1C[C@@]2(O)[C@@H](OC(=O)c3ccccc3)[C@@H]3[C@]4(OC(C)=O)CO[C@@H]4C[C@H](O)[C@@]3(C)C(=O)[C@H](OC(C)=O)C(=C1C)C2(C)C [CEPHALOMANNINE] | 6
